From paper PMC9714295, “DadY (PA5303) is required for fitness of Pseudomonas aeruginosa when growth is dependent on alanine catabolism” (Microbial Cell, 2022)

Assays:
DadY (PA5303) = molecular target: T1, DadY (PA5303) (Pseudomonas aeruginosa, UniProt Q9HTQ1); assay: semicarbazone competition assay, A248, imine generated by DadA; type: biochemical; conditions: imine made in situ from 7.5 mM D-alanine by 0.5 uM DadA; 5 uM DadY; 10 mM semicarbazide, FAD, ubiquinone-1; pH 8.7, 25 C
T1 sequence (Q9HTQ1 1-117): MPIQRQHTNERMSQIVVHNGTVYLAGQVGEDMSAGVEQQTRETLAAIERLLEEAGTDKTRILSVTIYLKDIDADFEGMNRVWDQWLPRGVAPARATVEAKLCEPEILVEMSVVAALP

DadA = molecular target: T2, DadA (Pseudomonas aeruginosa, UniProt Q9HTQ0); assay: semicarbazone formation, A248; type: biochemical; conditions: 7.5 mM D-alanine; 10 mM semicarbazide, 30 uM FAD, 100 uM ubiquinone-1; pH 8.7, 25 C; no DadY
T2 construct: gene dadA1
T2 sequence (Q9HTQ0 1-432): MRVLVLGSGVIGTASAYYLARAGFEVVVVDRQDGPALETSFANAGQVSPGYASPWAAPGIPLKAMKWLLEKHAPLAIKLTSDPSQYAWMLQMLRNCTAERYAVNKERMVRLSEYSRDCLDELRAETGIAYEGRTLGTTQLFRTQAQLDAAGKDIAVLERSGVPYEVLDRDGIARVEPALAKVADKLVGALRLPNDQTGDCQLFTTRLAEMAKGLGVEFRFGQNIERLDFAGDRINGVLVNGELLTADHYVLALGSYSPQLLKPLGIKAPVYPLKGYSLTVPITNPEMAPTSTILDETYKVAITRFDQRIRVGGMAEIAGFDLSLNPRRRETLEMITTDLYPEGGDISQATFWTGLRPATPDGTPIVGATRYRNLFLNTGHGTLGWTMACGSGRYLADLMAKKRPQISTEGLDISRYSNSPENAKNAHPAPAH

SMILES	semicarbazone competition assay, A248, imine generated by DadA (DadY (PA5303))	semicarbazone formation, A248 (DadA)
CC(=N)C(=O)O [imino-alanine]	DadY could act on the imine derived from D-alanine that was generated by DadA	
C[C@@H](N)C(=O)O [D-alanine]		When DadA used D-alanine as a substrate and semicarbazide was present, a semicarbazone compound was formed
